Converted amounts (≈) assume the structure as drawn. Like-named read-outs stand apart in the source and are kept apart here. Bounds are passed on as bounds.

Consider 13 molecules from article PMC6480153, “Discovery of Novel Triazole-Containing Pyrazole Ester Derivatives as Potential Antibacterial Agents” (Molecules, 2019).

The test system of data set [1] is Listeria monocytogenes (ATCC-15313). Nature of the data set: MIC by agar-dilution method against Listeria monocytogenes. Type of data set: cell-based. To be noted: for MIC: read-out: MIC L.m. The method, then:
(§1) In vitro antimicrobial activity of the prepared compounds against four bacteria was evaluated by the conventional agar-dilution method. Ciprofloxacin was selected as a reference standard.
(§2) The solid media Luria-Bertani (LB)-Broth-Agar-Medium (tryptone 10 g/L, yeast 5 g/L, NaCl 10 g/L, agar 15 g/L, and distilled water 1000 mL, adjusted to pH 7.4 was used for testing the antibacterial activity.
(§3) The in vitro antibacterial activity for synthesized compounds 4a–m were evaluated using the agar-dilution method. […] Drugs (10.0 mg) were dissolved in DMSO (1 mL) and the solution was diluted with water (9 mL). […] The bacterial inocula were prepared by suspending 24 h-old bacterial colonies from LB-Broth-Agar-Medium in 0.85% saline. The inocula were adjusted to 0.5 McFarland Standard ([…]). The suspensions were then diluted in 0.85% saline to give 10^7 CFU/mL. Petri dishes were spot-inoculated with 1 μL of each of the prepared bacterial suspensions (10^4 CFU/spot) and incubated at 37 °C for 24 h. […] A control test was also performed with test medium supplemented with DMSO at the same dilutions as used in the experiment in order to ensure that the solvent had no influence on bacterial growth.

In data set [2] the test system is Salmonella gallinarum (ATCC-9184). Nature of the data set: MIC by agar-dilution method against Salmonella gallinarum. In kind it is cell-based. To be noted: 24 h; for MIC: Salmonella enterica, read-out: MIC S.e. On the procedure: as §1, §2, §3
In data set [3] the test system is Staphylococcus aureus (ATCC-12600). Nature of the data set: MIC by agar-dilution method against Staphylococcus aureus. Type of data set: cell-based. To be noted: for MIC: ATCC12600. The method, then:
as §1, §2, §3

The test system of data set [4] is Escherichia coli (ATCC-25922). As to the kind of experiment: MIC by agar-dilution method against Escherichia coli. The settings on record: 24 h; for MIC E. c: 37 °C. In kind it is cell-based. On the procedure:
as §1, §2, §3

In another data set the target is T1, topoisomerase IV (Escherichia coli, UniProt P0AFI2+P20083).
T1 construct: First, the E. coli suspension is extracted to obtain a crude enzyme solution; endogenous in cells
T1 sequence (P20083 whole entry): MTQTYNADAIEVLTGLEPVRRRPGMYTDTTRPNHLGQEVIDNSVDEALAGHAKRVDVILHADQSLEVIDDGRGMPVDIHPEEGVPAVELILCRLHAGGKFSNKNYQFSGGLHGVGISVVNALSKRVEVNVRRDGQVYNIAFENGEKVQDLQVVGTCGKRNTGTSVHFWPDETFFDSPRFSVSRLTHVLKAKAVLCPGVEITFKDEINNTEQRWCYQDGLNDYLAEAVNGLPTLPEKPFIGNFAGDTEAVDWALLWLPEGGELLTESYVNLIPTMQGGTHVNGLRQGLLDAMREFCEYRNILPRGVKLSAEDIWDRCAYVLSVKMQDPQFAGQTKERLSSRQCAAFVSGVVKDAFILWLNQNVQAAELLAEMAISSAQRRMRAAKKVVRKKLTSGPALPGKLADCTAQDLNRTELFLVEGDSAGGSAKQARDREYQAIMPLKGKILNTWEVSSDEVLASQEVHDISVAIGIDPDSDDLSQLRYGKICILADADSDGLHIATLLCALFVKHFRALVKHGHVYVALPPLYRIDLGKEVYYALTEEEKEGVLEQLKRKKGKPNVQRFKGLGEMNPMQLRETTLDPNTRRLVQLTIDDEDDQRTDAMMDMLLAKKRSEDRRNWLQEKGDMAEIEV
T1 sequence (P0AFI2 whole entry): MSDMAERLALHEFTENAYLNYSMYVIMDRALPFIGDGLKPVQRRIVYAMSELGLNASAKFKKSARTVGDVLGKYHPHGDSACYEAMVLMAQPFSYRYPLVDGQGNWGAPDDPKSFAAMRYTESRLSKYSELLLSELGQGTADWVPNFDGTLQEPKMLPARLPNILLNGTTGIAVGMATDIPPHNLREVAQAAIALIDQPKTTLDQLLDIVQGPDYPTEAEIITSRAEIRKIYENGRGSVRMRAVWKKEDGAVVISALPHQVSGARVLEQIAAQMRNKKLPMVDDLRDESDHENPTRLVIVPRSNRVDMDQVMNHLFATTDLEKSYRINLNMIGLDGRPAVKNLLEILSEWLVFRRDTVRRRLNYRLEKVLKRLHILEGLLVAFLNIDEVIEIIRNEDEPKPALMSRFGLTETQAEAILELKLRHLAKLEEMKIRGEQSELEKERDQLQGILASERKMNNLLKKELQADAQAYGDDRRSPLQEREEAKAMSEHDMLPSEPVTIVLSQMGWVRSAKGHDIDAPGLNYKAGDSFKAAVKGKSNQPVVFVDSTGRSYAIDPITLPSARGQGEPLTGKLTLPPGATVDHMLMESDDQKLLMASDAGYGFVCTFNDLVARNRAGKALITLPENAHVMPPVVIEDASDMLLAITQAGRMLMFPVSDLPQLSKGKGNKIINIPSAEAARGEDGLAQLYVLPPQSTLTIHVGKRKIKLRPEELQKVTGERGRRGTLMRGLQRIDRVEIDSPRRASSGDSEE
Nature of the data set: Topoisomerase IV decatenation inhibition, gel electrophoresis. Type of data set: biochemical. To be noted: Topoisomerase IV decatenation activity, enzyme isolated from Escherichia coli. The method, then:
(§4) In order to determine the relationship between compounds and antibacterial activity, the inhibitory activity of selected compounds (4d and 4k) against DNA gyrase and topoisomerase IV isolated from Escherichia coli was examined.
(§5) The in vitro antibacterial activity of the target compounds was carried out on by the methods of Sato et al. and Peng and Marians. First, the E. coli suspension is extracted to obtain a crude enzyme solution. After the purification step, the selected compounds are determined by gel electrophoresis to obtain data of different gradient concentrations, thereby calculating the IC50 values.

The next data set concerns the target T2, DNA gyrase (Escherichia coli, UniProt P0AES4+P0AES6).
T2 construct: First, the E. coli suspension is extracted to obtain a crude enzyme solution; endogenous in cells
As to the kind of experiment: DNA gyrase (topoisomerase II) supercoiling inhibition, gel electrophoresis. Type of data set: biochemical. To be noted: Topoisomerase II supercoiling activity; enzyme isolated from Escherichia coli. The method, then: as §4, §5

Setting [5] is: Staphylococcus aureus ATCC-12600, agar dilution, 37 °C, 24 h.
Setting [6] is: Listeria monocytogenes ATCC-15313, agar dilution, 37 °C, 24 h.
[7] abbreviates: Salmonella gallinarum ATCC-9184, agar dilution, 37 °C.

T2 sequence (P0AES4 whole entry, one chain of several): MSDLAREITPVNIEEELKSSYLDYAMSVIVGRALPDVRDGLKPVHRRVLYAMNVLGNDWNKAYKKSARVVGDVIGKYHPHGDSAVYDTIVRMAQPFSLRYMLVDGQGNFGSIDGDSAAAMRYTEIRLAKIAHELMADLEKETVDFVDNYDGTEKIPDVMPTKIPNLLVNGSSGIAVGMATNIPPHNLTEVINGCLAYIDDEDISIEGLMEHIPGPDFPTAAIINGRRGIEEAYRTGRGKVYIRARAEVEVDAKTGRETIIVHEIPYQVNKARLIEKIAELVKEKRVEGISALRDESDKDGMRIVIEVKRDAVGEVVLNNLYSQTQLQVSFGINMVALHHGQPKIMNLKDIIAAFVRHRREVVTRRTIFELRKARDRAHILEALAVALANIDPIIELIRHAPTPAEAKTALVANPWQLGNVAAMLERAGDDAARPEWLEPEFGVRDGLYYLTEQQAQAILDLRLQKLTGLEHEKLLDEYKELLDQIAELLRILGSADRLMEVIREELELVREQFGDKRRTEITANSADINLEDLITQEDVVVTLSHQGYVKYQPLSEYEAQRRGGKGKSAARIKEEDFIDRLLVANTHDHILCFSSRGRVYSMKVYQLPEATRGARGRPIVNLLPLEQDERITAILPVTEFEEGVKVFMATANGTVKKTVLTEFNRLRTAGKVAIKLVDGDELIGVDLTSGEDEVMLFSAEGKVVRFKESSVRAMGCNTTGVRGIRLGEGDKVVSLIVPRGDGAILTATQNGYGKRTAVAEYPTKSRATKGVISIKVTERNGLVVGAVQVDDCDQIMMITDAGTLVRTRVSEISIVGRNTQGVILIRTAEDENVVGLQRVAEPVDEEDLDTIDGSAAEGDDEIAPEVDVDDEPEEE

By MIC is commonly meant the least concentration at which growth counts as inhibited. Turning to `O=C(O)c1cn(C2CC2)c2cc(N3CCNCC3)c(F)cc2c1=O` [CIP, Ciprofloxacin, reference compound], the MIC in data set [1] (Listeria monocytogenes, ATCC15313, 24 h) was found to be 1 µg/mL (≈ 3.02 µM); in data set [2], 0.25 µg/mL (≈ 0.754 µM).

As to `Cc1nn(-c2ccccc2)c(Cl)c1C(=O)Oc1ncn(-c2ccccc2)n1` [Compound 4a, 1-phenyl-1H-1,2,4-triazol-3-yl5-chloro-3-methyl-1-phenyl-1H-pyrazole-4-carboxylate], in data set [3] (setting [5]), the “MIC S.a” value is 16 µg/mL (≈ 42.1 µM). Besides, in data set [1] (setting [6]), the “MIC L.m” value stood at 16 µg/mL (≈ 42.1 µM). The “MIC S.e” value in data set [2] (setting [7]) stood at 16 µg/mL (≈ 42.1 µM). In addition, the “MIC E. c” value in data set [4] stood at 8 µg/mL (≈ 21.1 µM).

With `Cc1nn(-c2ccc(F)cc2)c(Cl)c1C(=O)Oc1ncn(-c2ccccc2)n1` [Compound 4b, 1-phenyl-1H-1,2,4-triazol-3-yl5-chloro-1-(4-fluorophenyl)-3-methyl-1H-pyrazole-4-carboxylate], in data set [3] (setting [5]), the “MIC S.a” value is listed as greater than 128 µg/mL. The “MIC L.m” value in data set [1] (setting [6]) is greater than 128 µg/mL. For the same molecule, the “MIC S.e” value in data set [2] (setting [7]) is 64 µg/mL (≈ 161 µM). Moreover, in data set [4], the “MIC E. c” value worked out at 64 µg/mL (≈ 161 µM).

Regarding `Cc1nn(-c2ccc(Cl)cc2)c(Cl)c1C(=O)Oc1ncn(-c2ccccc2)n1` [Compound 4c, 1-phenyl-1H-1,2,4-triazol-3-yl5-chloro-1-(4-chlorophenyl)-3-methyl-1H-pyrazole-4-carboxylate], the “MIC S.a” value in data set [3] (setting [5]) stood at 64 µg/mL (≈ 154 µM). The “MIC L.m” value in data set [1] (setting [6]) is greater than 128 µg/mL. The “MIC S.e” value in data set [2] (setting [7]) was 64 µg/mL (≈ 154 µM). Moreover, the “MIC E. c” value in data set [4] came out at 64 µg/mL (≈ 154 µM).

Broadly, the IC50 is the concentration that inhibits the measured activity by half. Broadly, the melting point is the temperature, or range, at which the solid turns liquid. Molecule `Cc1ccc(-n2nc(C)c(C(=O)Oc3ncn(-c4ccccc4)n3)c2Cl)cc1` [Compound 4d, 1-phenyl-1H-1,2,4-triazol-3-yl5-chloro-3-methyl-1-(p-tolyl)-1H-pyrazole-4-carboxylate] came in with a melting point of 154 to 156 °C. Further, in data set [3] (Staphylococcus aureus ATCC-12600, agar dilution, 37 °C, 24 h, read-out: MIC S.a), the MIC is 4 µg/mL (≈ 10.2 µM). For the same molecule, in data set [3] (Staphylococcus aureus, range stated in text for three compounds, read-out: MIC against Staphylococcus aureus), the MIC lay in the range of 4 to 8 µg/mL (≈ 10.2 to 20.3 µM). For the same molecule, the MIC in data set [1] (ATCC15313, Listeria monocytogenes ATCC-15313, agar dilution, 37 °C, 24 h) was 2 µg/mL (≈ 5.08 µM). Besides, the IC50 on topoisomerase IV (read-out: IC50 Topo IV (converted)) was 61.4 µM. Further, the MIC in data set [2] (setting [7]) came to 0.5 µg/mL (≈ 1.27 µM). Besides, the IC50 against DNA gyrase was 34.3 µM. The molecule also gave an MIC in data set [4] (ATCC25922, 37 °C) of 4 µg/mL (≈ 10.2 µM).

`Cc1nn(-c2ccccc2)c(Cl)c1C(=O)Oc1ncn(-c2ccc(F)cc2)n1` [Compound 4e, 1-(4-fluorophenyl)-1H-1,2,4-triazol-3-yl5-chloro-3-methyl-1-phenyl-1H-pyrazole-4-carboxylate]: the “MIC S.a” value in data set [3] (setting [5]) is on record as 64 µg/mL (≈ 161 µM). Moreover, the “MIC L.m” value in data set [1] (setting [6]) was found to be 32 µg/mL (≈ 80.4 µM). Moreover, the “MIC S.e” value in data set [2] (setting [7]) is listed as 32 µg/mL (≈ 80.4 µM). The “MIC E. c” value in data set [4] is listed as 32 µg/mL (≈ 80.4 µM).

Consider `Cc1nn(-c2ccc(F)cc2)c(Cl)c1C(=O)Oc1ncn(-c2ccc(F)cc2)n1` [Compound 4f, 1-(4-fluorophenyl)-1H-1,2,4-triazol-3-yl5-chloro-1-(4-fluorophenyl)-3-methyl-1H-pyrazole-4-carboxylate], for which the “MIC S.a” value in data set [3] (setting [5]) is greater than 128 µg/mL. In addition, the “MIC L.m” value in data set [1] (setting [6]) is given as greater than 128 µg/mL. Besides, the “MIC S.e” value in data set [2] (setting [7]) is greater than 128 µg/mL. Further, in data set [4], the “MIC E. c” value was greater than 128 µg/mL.

On to `Cc1nn(-c2ccc(Cl)cc2)c(Cl)c1C(=O)Oc1ncn(-c2ccc(F)cc2)n1` [Compound 4g, 1-(4-fluorophenyl)-1H-1,2,4-triazol-3-yl5-chloro-1-(4-chlorophenyl)-3-methyl-1H-pyrazole-4-carboxylate], for which the “MIC S.a” value in data set [3] (setting [5]) stood at 64 µg/mL (≈ 148 µM). Further, in data set [1] (setting [6]), the “MIC L.m” value amounted to 64 µg/mL (≈ 148 µM). The “MIC S.e” value in data set [2] (setting [7]) is 64 µg/mL (≈ 148 µM). The “MIC E. c” value in data set [4] came out at 64 µg/mL (≈ 148 µM).

For the molecule `Cc1ccc(-n2nc(C)c(C(=O)Oc3ncn(-c4ccc(F)cc4)n3)c2Cl)cc1` [Compound 4h, 1-(4-fluorophenyl)-1H-1,2,4-triazol-3-yl5-chloro-3-methyl-1-(p-tolyl)-1H-pyrazole-4-carboxylate], in data set [3] (setting [5]), the “MIC S.a” value came to 8 µg/mL (≈ 19.4 µM). The “MIC L.m” value in data set [1] (setting [6]) stood at 16 µg/mL (≈ 38.9 µM). For the same molecule, in data set [2] (setting [7]), the “MIC S.e” value was 32 µg/mL (≈ 77.7 µM). Besides, the “MIC E. c” value in data set [4] turned out to be 32 µg/mL (≈ 77.7 µM).

For the molecule `Cc1nn(-c2ccc(F)cc2)c(Cl)c1C(=O)Oc1ncn(-c2ccc(Cl)cc2)n1` [Compound 4i, 1-(4-chlorophenyl)-1H-1,2,4-triazol-3-yl5-chloro-1-(4-fluorophenyl)-3-methyl-1H-pyrazole-4-carboxylate], the “MIC S.a” value in data set [3] (setting [5]) is reported as greater than 128 µg/mL. Moreover, in data set [1] (setting [6]), the “MIC L.m” value was 64 µg/mL (≈ 148 µM). Besides, in data set [2] (setting [7]), the “MIC S.e” value was 64 µg/mL (≈ 148 µM). Besides, the “MIC E. c” value in data set [4] is listed as greater than 128 µg/mL.

Regarding `Cc1nn(-c2ccc(Cl)cc2)c(Cl)c1C(=O)Oc1ncn(-c2ccc(Cl)cc2)n1` [Compound 4j, 1-(4-chlorophenyl)-1H-1,2,4-triazol-3-yl5-chloro-1-(4-chlorophenyl)-3-methyl-1H-pyrazole-4-carboxylate], the “MIC S.a” value in data set [3] (setting [5]) came out at 64 µg/mL (≈ 143 µM). Besides, the “MIC L.m” value in data set [1] (setting [6]) is reported as 64 µg/mL (≈ 143 µM). In addition, the “MIC S.e” value in data set [2] (setting [7]) came out at 32 µg/mL (≈ 71.3 µM). Moreover, the “MIC E. c” value in data set [4] turned out to be 64 µg/mL (≈ 143 µM).

Turning to `Cc1ccc(-n2cnc(OC(=O)c3c(C)nn(-c4ccccc4)c3Cl)n2)cc1` [Compound 4k, 1-(p-tolyl)-1H-1,2,4-triazol-3-yl-5-chloro-3-methyl-1-phenyl-1H-pyrazole-4-carboxylate], the “MIC S.a” value in data set [3] (setting [5]) is on record as 4 µg/mL (≈ 10.2 µM). Besides, the “MIC L.m” value in data set [1] (setting [6]) is given as 8 µg/mL (≈ 20.3 µM). Besides, the “IC50 Topo IV” value against topoisomerase IV was found to be 33.1 µg/mL (≈ 84 µM). Besides, the “MIC S.e” value in data set [2] (setting [7]) is recorded as 4 µg/mL (≈ 10.2 µM). In addition, the “IC50 Gyrase” value against DNA gyrase was 25.7 µg/mL (≈ 65.3 µM). For the same molecule, the “MIC E. c” value in data set [4] is 4 µg/mL (≈ 10.2 µM).

Turning to `Cc1ccc(-n2cnc(OC(=O)c3c(C)nn(-c4ccc(F)cc4)c3Cl)n2)cc1` [Compound 4l, 1-(p-tolyl)-1H-1,2,4-triazol-3-yl5-chloro-1-(4-fluorophenyl)-3-methyl-1H-pyrazole-4-carboxylate], in data set [3] (setting [5]), the “MIC S.a” value is given as 32 µg/mL (≈ 77.7 µM). For the same molecule, in data set [1] (setting [6]), the “MIC L.m” value was determined as 64 µg/mL (≈ 155 µM). In addition, in data set [2] (setting [7]), the “MIC S.e” value was 32 µg/mL (≈ 77.7 µM). For the same molecule, the “MIC E. c” value in data set [4] is on record as 32 µg/mL (≈ 77.7 µM).
